Measured values: patent publication US20230414555A1, “USE OF DIHYDROMYRICETIN AS EPIGENETIC ACTIVE INGREDIENT FOR COSMETIC OR DERMATOLOGICAL SKIN CARE” (BEIERSDORF AG, priority 2020, published 2023)

Legend:
recombinant DNMT1 enzyme = biological target: T1, recombinant DNMT1 enzyme (Homo sapiens, UniProt P26358); experiment: cell-free DNMT Activity/Inhibition Assay (Active Motif); format: biochemical; settings: manufacturer's standard protocol, FIG. 1
T1 construct: purchased Active Motif, Belgium
Description: Here, the assay manufacturer's standard protocol was used.

[1] = tested on: DNA methylation of 850 000 CpGs in the epidermis; experiment: in vivo study: epidermal DNA methylation by EPIC technology after cream application and UV irradiation; settings: verum cream on lower back for two weeks, UV 0.8 MED on three consecutive days, compared to unirradiated control, n=32, FIG. 2
Method: To this end, test subjects (n=32) applied cream comprising a vehicle and a verum including dihydromyricetin to the lower back for two weeks. After the two-week treatment period, the test subjects were irradiated with UV (0.8 MED) on three consecutive days in order to imitate an age-relevant environmental influence. 24 hours after the final UV irradiation, suction blisters were produced and the epidermis was harvested. The DNA was isolated from the epidermis and the state of the DNA methylation of 850 000 CpGs was determined by means of EPIC technology from Illumina.

[2] = tested on: expression of 45 genes in the epidermis; experiment: in vivo study: gene expression in epidermis (TaqMan) after eight weeks of cream application; settings: verum cream on inner forearm for eight weeks, 19 test subjects (50-65 years), 45 genes analyzed, ΔΔCt method, FIG. 3
Method: To this end, 19 test subjects (50-65 years) applied cream comprising a vehicle and a verum including dihydromyricetin to the inner forearm over a period of eight weeks. Suction blisters were then produced and the epidermis was harvested. The RNA was isolated from the epidermis samples (RNeasy Fibrous Tissue Kit, Qiagen, Hilden) and the expression of 45 genes (+3 endogenous control genes) was analyzed using the TaqMan system (7900HT Fast Real-Time PCR System, Applied Biosystems). […] The changes in expression were calculated using the ΔΔCt method.

T1 sequence (P26358 whole entry): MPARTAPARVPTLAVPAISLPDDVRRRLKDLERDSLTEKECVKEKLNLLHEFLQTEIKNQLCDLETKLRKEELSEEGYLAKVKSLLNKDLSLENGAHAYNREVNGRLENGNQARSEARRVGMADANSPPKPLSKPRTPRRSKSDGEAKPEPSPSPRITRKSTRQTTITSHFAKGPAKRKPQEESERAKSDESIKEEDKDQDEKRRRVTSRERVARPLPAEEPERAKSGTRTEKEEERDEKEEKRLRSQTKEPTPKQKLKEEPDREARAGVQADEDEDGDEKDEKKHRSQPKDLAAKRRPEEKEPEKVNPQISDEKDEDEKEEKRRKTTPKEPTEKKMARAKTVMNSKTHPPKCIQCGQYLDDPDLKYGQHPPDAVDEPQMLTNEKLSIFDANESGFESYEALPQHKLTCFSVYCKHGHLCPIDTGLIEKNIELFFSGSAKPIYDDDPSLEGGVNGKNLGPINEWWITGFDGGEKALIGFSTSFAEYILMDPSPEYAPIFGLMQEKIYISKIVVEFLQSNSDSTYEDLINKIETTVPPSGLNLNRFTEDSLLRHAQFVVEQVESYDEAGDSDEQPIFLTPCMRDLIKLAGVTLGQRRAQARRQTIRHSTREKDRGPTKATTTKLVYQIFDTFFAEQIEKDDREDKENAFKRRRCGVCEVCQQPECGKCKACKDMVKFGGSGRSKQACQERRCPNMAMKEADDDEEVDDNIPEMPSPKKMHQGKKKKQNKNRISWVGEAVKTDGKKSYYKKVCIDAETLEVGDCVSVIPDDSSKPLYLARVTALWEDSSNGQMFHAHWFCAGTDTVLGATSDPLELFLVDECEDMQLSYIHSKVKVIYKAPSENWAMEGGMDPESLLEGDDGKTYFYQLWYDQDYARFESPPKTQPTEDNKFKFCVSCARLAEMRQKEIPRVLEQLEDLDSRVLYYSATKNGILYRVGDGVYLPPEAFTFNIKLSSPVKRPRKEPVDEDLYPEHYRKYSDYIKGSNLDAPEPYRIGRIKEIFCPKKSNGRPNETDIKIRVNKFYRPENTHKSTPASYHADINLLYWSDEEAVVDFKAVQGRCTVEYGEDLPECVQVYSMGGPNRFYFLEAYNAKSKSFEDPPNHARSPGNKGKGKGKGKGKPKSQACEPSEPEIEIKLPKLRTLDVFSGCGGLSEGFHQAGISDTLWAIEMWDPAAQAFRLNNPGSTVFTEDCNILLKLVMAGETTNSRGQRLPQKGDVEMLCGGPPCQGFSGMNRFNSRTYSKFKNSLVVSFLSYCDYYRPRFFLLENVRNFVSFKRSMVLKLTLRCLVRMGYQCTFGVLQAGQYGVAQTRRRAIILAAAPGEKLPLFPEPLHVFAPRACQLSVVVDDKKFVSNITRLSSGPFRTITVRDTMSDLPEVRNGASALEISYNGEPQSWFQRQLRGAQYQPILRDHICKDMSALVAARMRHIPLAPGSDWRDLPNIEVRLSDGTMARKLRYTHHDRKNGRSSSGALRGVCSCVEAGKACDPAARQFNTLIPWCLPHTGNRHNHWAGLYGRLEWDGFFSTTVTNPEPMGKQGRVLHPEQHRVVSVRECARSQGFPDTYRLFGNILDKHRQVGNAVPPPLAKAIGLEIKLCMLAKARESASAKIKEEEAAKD

inhibition of the recombinant DNMT1 enzyme (recombinant DNMT1 enzyme): concentration-dependent inhibition
SMILES: O=C1c2c(O)cc(O)cc2O[C@H](c2cc(O)c(O)c(O)c2)[C@H]1O [dihydromyricetin, (2R,3R)-3,5,7-trihydroxy-2-(3,4,5-trihydroxyphenyl)chroman-4-one]
methylation changes at CpGs at which the vehicle-treated area did not show any significant methylation changes [1]: 16 389 CpGs | genes with significant increase in expression in comparison to vehicle-treated control samples [2]: 16 genes
